1 compound from patent publication US5804583A, “Pyrimidinone derivatives fused to nitrogen heterocycles having a II antagonistic activity” (Istituto Luso Farmaco D'Italia, priority 1993, dated 1998) can be followed below.

Assay [1] addresses A II receptor. Description: receptor binding test: displacement of 125I-Sar1-Ile8-AT II or [3H] AT II in the rat adrenal cortex. The text has this: (§1) The compounds described in the present invention act as antagonists at the A II receptor level. For the characterization and the evaluation of the effectiveness of the compounds of the invention, in vitro tests (such as the inhibition of the A II-induced contraction in the rabbit aorta and the displacement of ^125 I-Sar^1 -Ile^8 -AT II or [^3 H] AT II in the rat adrenal cortex) and an in vivo test (the inhibition of the A II-induced pressory response in the ganglio-blocked normotensive rat) were selected.
For orientation: Loss of bound radioactivity is the signal in a displacement assay; it reports binding, not function.

Assay [2] relates to A II receptor. Nature of the assay: inhibition of the A II-induced contraction in the rabbit aorta.
Description: as §1

Usually Ki stands for the equilibrium dissociation constant of an inhibitor or competing ligand from its target. In the case of `CCCCc1c(Cc2ccc(-c3ccccc3-c3nnn[nH]3)cc2)c(=O)nc2n1C(C)C(=O)N2` (centres unmarked) [ex.6, 5-butyl-3-methyl-6-[[2'-(1H-tetrazol-5-yl)biphenyl-4-yl]methyl]imidazo[1,2-a]pyrimidin-2,7-dione], the affinity in assay [1], expressed as Ki, was 5 nM. In assay [2], this compound gave a PKB of 10.4.
